Patent US9381142B2, “Olfactory adaptation and cross-adapting agents to reduce the perception of body odors” (Monell Chemical Senses Center, priority 2002, dated 2016)

Key:
[1] = test system: female stress-derived axillary odor; experiment: Cross-adaptation of female stress-derived axillary odor (odor panel, magnitude estimation of perceived intensity); format: in vivo, human; conditions: for Magnitude of Reduction of Intensity of Female Stress-Derived Odor (FSDO), Males: female stress-derived odor perceived by men; for Magnitude of Reduction of Intensity of Female Stress-Derived Odor (FSDO), Females: female stress-derived odor perceived by women
Excerpt: (§1) The procedure relies upon an individual constantly sniffing an adapting agent, such as a fragrance, and occasionally a test odorant. Perceived intensity of the test odorant is obtained by using psychophysical, magnitude-estimation procedures. These perceived intensities are obtained every 30 seconds over the test period, and are then compared with baseline perceived intensities obtained before the individual began sniffing the adapting agent. Throughout the testing we observe adaptation to the adapting agent. Results during trials with an inserted test odorant, such as the axillary odor used here, are believed to be reasonably predictive. If the perceived intensity of the test odorant decreases during the test, then the adapting agent cross-adapts the test odorant and becomes a cross-adapting agent. If the cross-adapting agent is itself not offensive, then the cross-adapting agent becomes a candidate for use in formulations in consumer products to ameliorate malodors, such as axillary odor or fecal/urine odors, and odors related to the female menstrual cycle.
(§2) Collection of secretions: Apocrine secretions obtained under stressed conditions provided the axillary odor that was used as the test odorant to evaluate the effectiveness of various adapting agents. Secretions were obtained from males (ages 20 to 60 years) and females (ages 20 to 40 years) in good health. […] Volunteers prepared their axillae for collection of apocrine secretions by refraining from deodorant use for 3 days and shaving their axillae the morning of the collection day.
(§3) Volunteers were rested in a supine position. The axillary regions were washed with isopropanol-soaked pads and injected intradermally with 1:10,000 adrenalin (in physiologic saline). This injection stimulated the secretion of apocrine gland secretions, which were collected in 10 μl pipettes, passed into 0.25 ml Eppendorf tubes, and stored on ice (or frozen for longer storage). The amount of secretion collected varied greatly with the individual subject (≦10 μl). The apocrine secretions from each volunteer were combined by consecutively washing each Eppendorf tube with 2×300 μl of doubly distilled water. This aqueous-apocrine fluid was transferred to a 5 ml round-bottomed flask for hydrolysis. X-N. Zeng, J. J. Leyden, J. G. Brand, A. I. Spielman, K. J. McGinley, G. Preti, An Investigation of Human Apocrine Gland Secretion for Axillary Odor Precursors, 18 J. Chem. Ecol. 1039-1055 (1992); X-N. Zeng, J. J. Leyden, A. I. Spielman and G. Preti Analysis of the characteristic human female axillary odors: Qualitative comparison to males. 22 J. Chem. Ecol. 237-257 (1996).
(§4) Production of odor: To produce quantities of stress-derived axillary odor for testing purposes, we hydrolyzed the apocrine secretion. The aqueous solution was refluxed for 20 min with 0.5 ml, 5% aqueous sodium hydroxide under a stream of nitrogen. The mixture was allowed to cool to room temperature, and then it was cooled in ice prior to being acidified with 6 N HCl to pH 2. The resulting axillary odor developed in the reaction mixture upon acidification was used as the test odorant. The axillary odors generated by this in vitro technique are analogous to the malodors produced by stressed individuals.
A separate panel of 24 subjects (12 males and 12 females) tested samples of female stress-derived axillary odor with potential cross-adapting agents, some of which were not included in Example 1 above. Some of the subjects assessing the effectiveness of cross-adaptation of male stress-derived axillary odor were also used in the experiment with female secretions. However, these two experiments were treated as independent events. All panel members were screened for adequate use of magnitude estimation and further trained in its use during two to three training sessions. […]

[2] = test system: male stress-derived axillary odor; experiment: Cross-adaptation of male stress-derived axillary odor (odor panel, magnitude estimation of perceived intensity); format: in vivo, human; conditions: for Magnitude of Reduction of Intensity of Male Stress-Derived Odor (MSDO), Males: male stress-derived odor perceived by men; for Magnitude of Reduction of Intensity of Male Stress-Derived Odor (MSDO), Females: male stress-derived odor perceived by women
Excerpt: as §1, §2, §3, §4
Sixteen (16) individuals (8 of each gender) served on an odor panel. Subjects ranged in age from 22 to 55 years (mean 32.7±10.6 s.d.), were not pregnant (by verbal report), and were all non-smokers. All panel members were screened for adequate use of magnitude estimation (some people have difficulties maintaining a ratio scale, i.e., when an odorant is half as strong as the previous, these people fail to provide a number that is half the previous estimate) and further trained in its use during 2-3 training sessions. All 16 subjects were tested with samples of male malodor compared to each of the potential cross-adapting agents. […]
Also: key: best: Best = Superior Cross-Adaptation; good: Good = Adequate Cross-Adaptation; poor: Poor = Ineffective Cross-Adaptation.

SMILES	Magnitude of Reduction of Intensity of Female Stress-Derived Odor (FSDO), Males [1]	Magnitude of Reduction of Intensity of Female Stress-Derived Odor (FSDO), Females [1]	Magnitude of Reduction of Intensity of Male Stress-Derived Odor (MSDO), Males [2]	Magnitude of Reduction of Intensity of Male Stress-Derived Odor (MSDO), Females [2]
O=C1CCCCCCCC=CCCCCCCO1 [Ambrettolide, oxacycloheptadec-10-en-2-one]	poor	good	poor	poor
CCCCCCCC1CCC(=O)O1 (stereo not shown) [C14 Aldehyde, gamma-undecalactone]	good	good	good	poor
CO[C@]1(C)CC[C@@]23C[C@@H]1C(C)(C)[C@@H]2CC[C@H]3C [CEDRAMBER ®, cedryl methyl ether]	good	good	good	poor
CC(C)=CCC(C)(C)C(=O)C(C)C [CLARITONE ®, 2,4,4,7-tetramethyl-oct-6-en-3-one]	best	good	best	best
CC/C=C\CCO [Cis-3-Hexenol, cis-3-hexenol-1-ol]	best	good	good	good
CC(C)=CCCC(C)CCO (stereo not shown) [Citronellol 950, 3,7-dimethyl-6-octen-1-ol]	good	good	good	good
C=CC(C)CCCC(C)(C)O (stereo not shown) [Dihydromyrcenol, 2,6-dimethyl-7-octen-2-ol]	best	good	best	good
C=CCCC(=O)C1=CCCC(C)(C)C1 [Dynascone 10, 1-(5,5-dimethyl-1-cyclohexen-1-yl)4-penten-1-one]	good	good	best	poor
C=CCc1ccc(O)c(OC)c1 [Eugenol, 2-methoxy-1-hydroxy-4-allylbenzene]	good	good	best	poor
CC(C)=CCCC(C)CCCC(C)C=O (stereo not shown) [FARENAL ®, 2,6,10-trimethyl-9-undecenal]	good	poor	poor	poor
CC1CC(C)(c2ccccc2)OC(C)O1 (stereo not shown) [Floropal, 2,4,6-trimethyl-4-phenyl-1,3-dioxane]	best	best	good	poor
CCCCCC1C(=O)CCC1CC(=O)OC (stereo not shown) [HEDIONE ®, methyl dihydro jasmonate]	poor	poor	poor	poor
CCCCCCOC(=O)c1ccccc1O [Hexyl Salicylate, hexyl-2-hydroxybenzoate]	poor	good	poor	poor
CCCCCCC(C=O)=Cc1ccccc1 [Hexylcinnamic Aldehyde, alpha-hexylcinnamaldehyde]	good	poor	good	good
CC(=O)C1(C)CC2=C(CCCC2(C)C)CC1C (stereo not shown) [ISO E SUPER ®, octahydro-2,3,8,8-tetramethyl-2-acetonaphthone]	poor	poor	poor	poor
C=CCOC(=O)COC1CCCCC1 [Isoananat, allyl cyclohexyloxyacetate]	good	poor	best	poor
CC(=O)O[C@@H]1C[C@H](C)CC[C@H]1C(C)C [Menthyl Acetate rf, 4-menthyl-3-yl acetate]	good	good	best	poor
CC(=O)OC1CCC(C(C)(C)C)CC1 (stereo not shown) [Oryclone Special, 4-tertbutylcyclohexyl acetate]	best	poor	good	poor
OCCc1ccccc1 [Phenylethyl Alcohol, phenylethyl alcohol]	good	poor	good	good
